Calls of active or inactive are those of the source.
Experiments:
[1] = biological target: T1, E3 ubiquitin-protein ligase XIAP (Homo sapiens, UniProt P98170); test: Counter Screen using XIAP-Bir3 for Chemical Antagonists of Bir1/2 domains of IAP-family anti-apoptotic proteins. [Related pubchem assays (depositor defined):AID1018, AID1449, AID1514, AID1638, AID1749, AID1750, AID488957, AID488963]
[2] = biological target: T1, E3 ubiquitin-protein ligase XIAP; test: XIAP antagonists, biochemical, IAP family, fluorescence polarization (AID 1018); assay type: functional
[3] = Luminescence Cell-Based Dose Confirmation HTS to Identify Activators of 5'UTR Stem-Loop Driven Alpha-Synuclein mRNA Translation in H4 Neuroglioblastoma Cells. [Related pubchem assays: 1829 (Project Summary), 1814 (Primary HTS)]; assay type: functional
[4] = Luminescence Cell-Based Dose Response HTS to Identify Activators of Luciferase Translation or Activity in H4 […] Cells. [Related pubchem assays: 1829 (Project Summary), 1814 (Primary HTS)]; assay type: functional
H4 = test: Luminescence Cell-Based Dose Response HTS to Identify Activators of 5'UTR Stem-Loop Driven Prion Protein mRNA Translation in H4 Neuroglioblastoma Cells. [Related pubchem assays: 1829 (Project Summary), 1814 (Primary HTS)]; assay type: functional; conditions: Homo sapiens
[5] = inhibitors of intracellular T. cruzi replication, confirmation, NIH3T3 host cells, beta-gal luminescence (AID 2044); assay type: functional, cell-based;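 further: intracellular parasites grown in NIH/3T3 mouse fibroblasts as host cells; luminescent beta-galactosidase reporter signal from transgenic T. cruzi replicating inside host cells; inhibitors lower the luminescence signal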
[6] = cytotoxicity toward NIH3T3 fibroblasts, dose response, counter-screen, cell-based, ATP luminescence, mouse fibroblasts (AID 2010); assay type: functional;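 further: cells exposed to compound for about 90 hours before reading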
[7] = biological target: DNA damage-inducible transcript 3 protein (Mus musculus, UniProt P35639); assay type: functional, Cricetulus griseus
[8] = biological target: T2, Microphthalmia-associated transcription factor (Homo sapiens, UniProt O75030); test: TRPM1 promoter luciferase signal decrease, dose response, MITF inhibitor project, cell-based, SK-MEL-5, cherry-picked, set 3 (AID 493073); assay type: functional
T2 sequence (O75030 whole entry): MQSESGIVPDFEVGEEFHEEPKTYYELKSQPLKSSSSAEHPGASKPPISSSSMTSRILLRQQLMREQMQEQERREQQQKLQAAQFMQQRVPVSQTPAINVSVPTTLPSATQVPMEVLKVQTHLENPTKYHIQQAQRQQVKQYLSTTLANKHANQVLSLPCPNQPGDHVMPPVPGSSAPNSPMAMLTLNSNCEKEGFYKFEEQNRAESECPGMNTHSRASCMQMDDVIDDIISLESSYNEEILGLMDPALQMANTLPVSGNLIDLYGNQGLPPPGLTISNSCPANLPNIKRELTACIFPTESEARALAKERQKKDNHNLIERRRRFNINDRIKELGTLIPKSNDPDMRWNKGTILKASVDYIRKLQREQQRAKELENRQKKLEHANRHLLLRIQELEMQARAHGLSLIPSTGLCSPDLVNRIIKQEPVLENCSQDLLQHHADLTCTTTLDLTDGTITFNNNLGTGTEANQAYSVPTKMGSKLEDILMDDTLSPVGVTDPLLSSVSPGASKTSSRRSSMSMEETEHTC

A-375 = test: MITF: Counter assay: A375 proliferation Measured in Cell-Based System Using Plate Reader - 2084-03_Inhibitor_Dose_DryPowder_Activity. [Related pubchem assays (depositor defined):AID488944]; assay type: functional; conditions: Homo sapiens
[9] = Shn3 3'UTR reporter inhibitors, dose response, cell-based, Clone20 osteoblasts, firefly luciferase, cherry-picked (AID 624132); assay type: functional;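 further: firefly luciferase luminescence from reporter carrying the Shn3 3'UTR in osteoblasts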
[10] = HepG2 cell cytotoxicity, dose response, cytotoxicity control for Shn3 inhibitor project, CellTiter-Glo, cherry-picked (AID 624134); assay type: functional, cell-based
[11] = control 3'UTR Renilla luciferase suppression, dose response, counter-screen for Shn3 inhibitor project, cell-based, Clone20-Shn3RL, cherry-picked (AID 624133); assay type: functional
[12] = biological target: Voltage-gated inwardly rectifying potassium channel KCNH2 (Homo sapiens, UniProt Q12809); test: hERG protection from proarrhythmic block, potency, dose response, cell-based, thallium flux (AID 2121); assay type: ADME
[13] = mammalian cell cytotoxicity, dose response, cytotoxicity control, plate reader, cherry-pick samples (AID 504397); assay type: functional, cell-based
HEK293 = test: inhibitors of LMP1-driven NF-kB reporter, dose response, cell-based, HEK293, luciferase, cherry-pick (AID 588343); assay type: functional; conditions: Homo sapiens
[14] = biological target: T3, G-protein coupled receptor 35 (Homo sapiens, UniProt Q9HC97); test: SAR analysis of Agonists of the GPR35 Receptor using an Image-Based Assay - Set 4. [Related pubchem assays (depositor defined):AID2013, AID2026]; assay type: functional
Cannabinoid receptor 1 [15] = biological target: T4, Cannabinoid receptor 1 (Homo sapiens, UniProt P21554); test: SAR analysis of agonists of the Cannabinoid Receptor 1 using an Image-Based Assay - Set 4. [Related pubchem assays (depositor defined):AID2013, AID2026]; assay type: functional
[16] = biological target: T3, G-protein coupled receptor 35; test: SAR analysis of Antagonists of the GPR35 Receptor using an Image-Based Assay - Set 6. [Related pubchem assays (depositor defined):AID2013, AID2026]; assay type: functional
Cannabinoid receptor 1 [17] = biological target: T4, Cannabinoid receptor 1; test: SAR analysis of antagonists of the Cannabinoid Receptor 1 using an Image-Based Assay - Set 4. [Related pubchem assays (depositor defined):AID2013, AID2026]; assay type: functional
[18] = biological target: G-protein coupled receptor 55 (Homo sapiens, UniProt Q9Y2T6); test: SAR Analysis of Selective Antagonists of GPR55 using an Image-Based Assay - Set 4. [Related pubchem assays (depositor defined):AID2013, AID2026]; assay type: functional;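 further: antagonism of response to 5 µM lysophosphatidylinositol agonist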
Cannabinoid receptor 2 [19] = biological target: T5, Cannabinoid receptor 2 (Homo sapiens, UniProt P34972); test: SAR analysis of antagonists of the Cannabinoid Receptor 2 using an Image-Based Assay - Set 3. [Related pubchem assays (depositor defined):AID2013, AID2026]; assay type: functional
Cannabinoid receptor 2 [20] = biological target: T5, Cannabinoid receptor 2; test: SAR analysis of agonists of the Cannabinoid Receptor 2 using an Image-Based Assay - Set 3. [Related pubchem assays (depositor defined):AID2013, AID2026]; assay type: functional

T4 sequence (P21554 whole entry): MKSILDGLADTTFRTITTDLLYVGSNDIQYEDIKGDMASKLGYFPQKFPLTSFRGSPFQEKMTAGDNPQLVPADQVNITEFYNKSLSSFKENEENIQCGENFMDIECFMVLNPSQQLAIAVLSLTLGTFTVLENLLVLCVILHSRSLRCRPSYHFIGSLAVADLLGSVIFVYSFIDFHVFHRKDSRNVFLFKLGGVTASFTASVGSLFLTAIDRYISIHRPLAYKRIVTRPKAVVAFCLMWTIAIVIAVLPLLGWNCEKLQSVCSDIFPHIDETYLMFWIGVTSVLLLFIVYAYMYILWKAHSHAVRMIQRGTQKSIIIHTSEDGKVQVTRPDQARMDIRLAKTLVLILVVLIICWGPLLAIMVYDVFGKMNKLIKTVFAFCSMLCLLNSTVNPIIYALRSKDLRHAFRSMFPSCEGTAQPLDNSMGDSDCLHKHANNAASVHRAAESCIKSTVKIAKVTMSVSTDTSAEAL
T1 sequence (P98170 whole entry): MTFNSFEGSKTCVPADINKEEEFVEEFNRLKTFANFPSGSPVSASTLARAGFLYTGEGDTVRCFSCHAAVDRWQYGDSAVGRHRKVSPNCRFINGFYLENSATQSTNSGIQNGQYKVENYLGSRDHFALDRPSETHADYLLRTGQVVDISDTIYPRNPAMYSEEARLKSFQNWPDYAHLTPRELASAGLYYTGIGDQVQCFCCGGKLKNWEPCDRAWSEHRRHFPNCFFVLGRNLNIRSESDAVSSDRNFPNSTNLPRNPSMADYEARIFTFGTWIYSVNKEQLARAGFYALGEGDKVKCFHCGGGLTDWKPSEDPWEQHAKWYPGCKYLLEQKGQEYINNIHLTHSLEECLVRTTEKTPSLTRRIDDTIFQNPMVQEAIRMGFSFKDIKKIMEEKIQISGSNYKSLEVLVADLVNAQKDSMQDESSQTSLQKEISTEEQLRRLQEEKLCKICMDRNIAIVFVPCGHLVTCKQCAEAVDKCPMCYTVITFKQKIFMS
T3 sequence (Q9HC97 whole entry): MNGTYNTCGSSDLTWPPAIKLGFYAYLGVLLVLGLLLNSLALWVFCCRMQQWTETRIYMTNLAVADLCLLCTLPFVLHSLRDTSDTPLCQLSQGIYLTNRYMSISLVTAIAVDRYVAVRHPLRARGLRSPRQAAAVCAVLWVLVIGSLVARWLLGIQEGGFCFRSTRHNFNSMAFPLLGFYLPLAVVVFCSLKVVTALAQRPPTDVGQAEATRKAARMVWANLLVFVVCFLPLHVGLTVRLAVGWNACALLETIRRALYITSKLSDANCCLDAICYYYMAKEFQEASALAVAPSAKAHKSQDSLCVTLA
T5 sequence (P34972 whole entry): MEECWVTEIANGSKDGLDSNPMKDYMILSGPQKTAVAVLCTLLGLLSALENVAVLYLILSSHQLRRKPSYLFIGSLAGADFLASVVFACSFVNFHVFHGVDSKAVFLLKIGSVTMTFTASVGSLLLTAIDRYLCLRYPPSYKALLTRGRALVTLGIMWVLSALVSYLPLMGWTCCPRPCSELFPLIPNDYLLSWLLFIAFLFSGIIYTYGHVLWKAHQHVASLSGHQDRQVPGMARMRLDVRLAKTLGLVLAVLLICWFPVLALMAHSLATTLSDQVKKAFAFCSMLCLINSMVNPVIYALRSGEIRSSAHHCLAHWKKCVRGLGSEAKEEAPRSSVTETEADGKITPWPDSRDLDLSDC
Chain of DNA damage-inducible transcript 3 protein (P35639 whole entry): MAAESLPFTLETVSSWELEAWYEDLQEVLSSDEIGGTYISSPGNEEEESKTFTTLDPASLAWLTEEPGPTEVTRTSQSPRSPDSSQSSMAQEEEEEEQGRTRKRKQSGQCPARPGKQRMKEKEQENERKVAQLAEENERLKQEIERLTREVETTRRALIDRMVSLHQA
Chain of Voltage-gated inwardly rectifying potassium channel KCNH2 (Q12809 whole entry): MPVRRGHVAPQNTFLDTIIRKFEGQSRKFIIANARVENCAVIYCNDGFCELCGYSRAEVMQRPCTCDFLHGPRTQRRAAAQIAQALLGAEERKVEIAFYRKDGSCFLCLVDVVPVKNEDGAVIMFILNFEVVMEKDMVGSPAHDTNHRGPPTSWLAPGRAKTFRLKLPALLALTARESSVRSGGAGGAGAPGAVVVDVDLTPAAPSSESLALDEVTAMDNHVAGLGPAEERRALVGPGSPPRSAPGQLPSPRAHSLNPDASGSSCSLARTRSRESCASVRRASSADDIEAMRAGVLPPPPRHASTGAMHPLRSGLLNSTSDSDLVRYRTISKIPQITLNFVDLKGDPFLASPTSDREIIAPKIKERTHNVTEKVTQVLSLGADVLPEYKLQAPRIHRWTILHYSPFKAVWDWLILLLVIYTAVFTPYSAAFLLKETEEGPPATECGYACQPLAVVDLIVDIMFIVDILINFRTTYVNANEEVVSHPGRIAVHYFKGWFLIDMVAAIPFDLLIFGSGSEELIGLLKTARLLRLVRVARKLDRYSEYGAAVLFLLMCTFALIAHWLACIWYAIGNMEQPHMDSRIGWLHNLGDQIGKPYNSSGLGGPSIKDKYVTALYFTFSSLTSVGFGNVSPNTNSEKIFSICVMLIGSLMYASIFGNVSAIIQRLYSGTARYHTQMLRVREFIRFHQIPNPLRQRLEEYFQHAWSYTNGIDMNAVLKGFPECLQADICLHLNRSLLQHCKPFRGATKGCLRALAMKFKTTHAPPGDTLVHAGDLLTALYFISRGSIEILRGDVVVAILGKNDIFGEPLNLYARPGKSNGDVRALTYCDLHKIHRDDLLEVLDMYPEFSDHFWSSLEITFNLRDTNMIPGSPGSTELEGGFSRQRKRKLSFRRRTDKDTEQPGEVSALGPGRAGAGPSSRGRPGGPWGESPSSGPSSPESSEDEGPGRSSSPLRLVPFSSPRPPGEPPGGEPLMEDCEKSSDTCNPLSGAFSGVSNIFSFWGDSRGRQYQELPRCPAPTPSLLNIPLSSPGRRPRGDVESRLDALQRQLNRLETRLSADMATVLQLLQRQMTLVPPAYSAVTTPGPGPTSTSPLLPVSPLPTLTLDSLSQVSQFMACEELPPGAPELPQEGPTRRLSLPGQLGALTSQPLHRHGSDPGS
Chain of G-protein coupled receptor 55 (Q9Y2T6 whole entry): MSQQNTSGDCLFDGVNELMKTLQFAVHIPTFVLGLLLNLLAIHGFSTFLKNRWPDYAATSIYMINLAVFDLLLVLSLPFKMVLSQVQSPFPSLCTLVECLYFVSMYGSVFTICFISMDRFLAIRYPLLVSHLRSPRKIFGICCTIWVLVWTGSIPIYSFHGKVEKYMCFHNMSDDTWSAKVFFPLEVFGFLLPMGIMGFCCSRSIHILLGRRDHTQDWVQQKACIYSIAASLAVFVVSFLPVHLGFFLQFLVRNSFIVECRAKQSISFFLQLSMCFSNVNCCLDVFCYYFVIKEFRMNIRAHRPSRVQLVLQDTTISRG

## CN1/C(=C\C=C2\N=C(c3ccc(F)cc3)OC2=O)C(C)(C)c2ccccc21
[1]
  IC50: > 12.5 µM (inactive)
[2]
  IC50: > 100 µM (not active)

## CC(C)(C)C(=O)Cn1ncc(Br)c(Br)c1=O
[3]
  EC50: > 120 µM (not active)
[4]
  EC50: > 120 µM (not active)
H4
  EC50: > 120 µM (not active)
[5]
  EC50: 2.19 µM (active)
[6]
  EC50: 1.93 µM (active)
[7]
  Absolute IC50 (CHOP): 10 µM
[8]
  AC50: 3.92 µM (active)
A-375
  AC50: 32.8 µM (active)
[9]
  AC50: 9.51 µM (active)
[10]
  AC50: 67.2 µM (active)
[11]
  AC50: 13.9 µM (active)

## Oc1c(N=NC(S)=Nc2ccccc2F)c2ccccc2n1Cc1ccccc1F
[5]
  EC50: 1.26 µM (active)
[12]
  EC50: 0.44 µM (active)
[13]
  AC50: 302 µM (active)
HEK293
  AC50: 4.06 µM (active)

## O=C(Cc1ccc(F)cc1)N1CCC(n2nc(-c3ccccc3)oc2=O)CC1
[14]
  EC50: > 32 µM (inactive)
Cannabinoid receptor 1 [15]
  EC50: > 32 µM (inactive)
[16]
  IC50: > 32 µM (inactive)
Cannabinoid receptor 1 [17]
  IC50: 11.7 µM (inactive)
[18]
  IC50: > 32 µM (inactive)
Cannabinoid receptor 2 [19]
  IC50: > 32 µM (inactive)
Cannabinoid receptor 2 [20]
  EC50: > 32 µM (inactive)

From ChEMBL document CHEMBL1201862, “PubChem BioAssay data set” (2004)
